Assay results taken from patent US12435072B2, “Compounds” (Vicore Pharma AB, priority 2019, dated 2025).
Like-named read-outs stand apart in the source and are kept apart here.

Key:
Assay type in all cases: in vitro ADME
[1] = Metabolic stability in pooled human liver microsomes; details: pooled human liver microsomes 0.5 mg/ml, 1 μM test compound, 37° C.
Description: Pooled human liver microsomes in PBS at a concentration of 0.5 mg/ml was incubated with or without 1 mM NADPH for 70 min at 37° C. Test compound was added after 10 minutes to a final concentration of 1 μM. Samples were withdrawn at 0, 5, 15 and 60 minutes and added to test tubes containing acetonitrile, to stop the reaction, and with terfenadine, used as internal standard. After centrifugation at 10 000×g for 5 minutes the supernatant was diluted 1:1 with 1% formic acid. Samples were separated on a reverse phase column and detected by triple quadrupole MSMS (Agilant model 6540). The concentration of the parent compound at the different time points was measured with an external standard curve using terfenadine as internal standard and the initial metabolic rate in the presence or absence of NADPH calculated.

CYP1A = target: T1, CYP1A (Homo sapiens, UniProt P05177); test: CYP inhibition in human liver microsomes, CYP1A; details: probe phenacetin, substrate phenacetin, read-out: CYP1A Inh %
T1 construct: incubated with human liver microsomes; tissue Eurofins ITEMG232; host or cells: human liver microsomes
T1 sequence (P05177 1-516): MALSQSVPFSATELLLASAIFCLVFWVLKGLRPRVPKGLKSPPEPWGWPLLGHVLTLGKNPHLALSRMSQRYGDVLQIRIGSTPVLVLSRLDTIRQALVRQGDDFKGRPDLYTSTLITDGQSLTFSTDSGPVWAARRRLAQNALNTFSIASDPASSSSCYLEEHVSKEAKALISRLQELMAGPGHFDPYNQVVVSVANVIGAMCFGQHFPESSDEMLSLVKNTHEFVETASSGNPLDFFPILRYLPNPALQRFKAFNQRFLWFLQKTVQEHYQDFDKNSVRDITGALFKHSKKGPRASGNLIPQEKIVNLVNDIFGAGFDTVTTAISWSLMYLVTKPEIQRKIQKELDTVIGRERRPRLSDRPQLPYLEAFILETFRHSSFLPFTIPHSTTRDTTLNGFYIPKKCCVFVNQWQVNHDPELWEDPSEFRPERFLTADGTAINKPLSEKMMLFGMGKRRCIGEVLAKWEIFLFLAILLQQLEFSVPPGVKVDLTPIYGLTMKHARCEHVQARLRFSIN
Description: (§1) The following substrates were used: CYP1A phenacetin, CYP2B6 bupropion, CYP2C8 paclitaxel and amodiaquine, CYP2C9 diclofenac, CYP2C19 omeprazole, CYP2D6 dextromethorphan, CYP3A midazolam and testosterone. At the end of the incubation, the formation of metabolite was monitored by HPLC-MS/MS as the peak area response.

CYP2B6 = target: T2, CYP2B6 (Homo sapiens, UniProt P20813); test: CYP inhibition in human liver microsomes, CYP2B6; details: probe bupropion, substrate bupropion, read-out: CYP2B6 Inh %
T2 construct: incubated with human liver microsomes; tissue Eurofins ITEMG232; host or cells: human liver microsomes
T2 sequence (P20813 1-491): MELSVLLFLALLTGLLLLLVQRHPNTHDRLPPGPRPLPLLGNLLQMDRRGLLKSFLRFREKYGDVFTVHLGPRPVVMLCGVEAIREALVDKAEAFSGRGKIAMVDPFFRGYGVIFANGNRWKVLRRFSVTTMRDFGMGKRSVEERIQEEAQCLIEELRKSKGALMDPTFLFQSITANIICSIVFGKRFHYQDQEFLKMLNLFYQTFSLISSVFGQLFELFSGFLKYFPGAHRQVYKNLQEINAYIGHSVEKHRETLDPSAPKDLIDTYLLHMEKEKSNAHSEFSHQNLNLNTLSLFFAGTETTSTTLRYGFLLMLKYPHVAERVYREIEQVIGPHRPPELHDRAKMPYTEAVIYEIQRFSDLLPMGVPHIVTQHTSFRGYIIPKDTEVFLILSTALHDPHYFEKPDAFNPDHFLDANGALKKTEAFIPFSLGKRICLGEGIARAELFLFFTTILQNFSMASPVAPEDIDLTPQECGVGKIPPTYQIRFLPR
Description: as §1

CYP2C19 = target: T3, CYP2C19 (Homo sapiens, UniProt P33261); test: CYP inhibition in human liver microsomes, CYP2C19; details: probe omeprazole, substrate omeprazole, read-out: CYP2C19 Inh %
T3 construct: incubated with human liver microsomes; tissue Eurofins ITEMG232; host or cells: human liver microsomes
T3 sequence (P33261 whole entry): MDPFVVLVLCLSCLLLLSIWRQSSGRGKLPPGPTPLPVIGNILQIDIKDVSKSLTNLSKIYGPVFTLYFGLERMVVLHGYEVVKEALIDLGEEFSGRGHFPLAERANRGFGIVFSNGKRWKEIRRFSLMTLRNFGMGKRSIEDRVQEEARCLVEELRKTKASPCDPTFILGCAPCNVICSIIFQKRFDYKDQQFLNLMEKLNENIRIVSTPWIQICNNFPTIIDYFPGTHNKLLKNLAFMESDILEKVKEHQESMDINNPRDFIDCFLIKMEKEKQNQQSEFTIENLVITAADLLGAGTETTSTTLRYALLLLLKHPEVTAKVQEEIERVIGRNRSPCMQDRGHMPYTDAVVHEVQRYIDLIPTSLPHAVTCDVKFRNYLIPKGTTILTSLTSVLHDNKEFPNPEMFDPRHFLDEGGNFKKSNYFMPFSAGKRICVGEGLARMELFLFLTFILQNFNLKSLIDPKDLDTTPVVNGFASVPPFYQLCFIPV
Description: as §1

CYP2C8 = target: T4, CYP2C8 (Homo sapiens, UniProt P10632); test: CYP inhibition in human liver microsomes, CYP2C8; details: probe paclitaxel and amodiaquine, substrate paclitaxel and amodiaquine, read-out: CYP2C8 Inh %
T4 construct: incubated with human liver microsomes; tissue Eurofins ITEMG232; host or cells: human liver microsomes
T4 sequence (P10632 1-490): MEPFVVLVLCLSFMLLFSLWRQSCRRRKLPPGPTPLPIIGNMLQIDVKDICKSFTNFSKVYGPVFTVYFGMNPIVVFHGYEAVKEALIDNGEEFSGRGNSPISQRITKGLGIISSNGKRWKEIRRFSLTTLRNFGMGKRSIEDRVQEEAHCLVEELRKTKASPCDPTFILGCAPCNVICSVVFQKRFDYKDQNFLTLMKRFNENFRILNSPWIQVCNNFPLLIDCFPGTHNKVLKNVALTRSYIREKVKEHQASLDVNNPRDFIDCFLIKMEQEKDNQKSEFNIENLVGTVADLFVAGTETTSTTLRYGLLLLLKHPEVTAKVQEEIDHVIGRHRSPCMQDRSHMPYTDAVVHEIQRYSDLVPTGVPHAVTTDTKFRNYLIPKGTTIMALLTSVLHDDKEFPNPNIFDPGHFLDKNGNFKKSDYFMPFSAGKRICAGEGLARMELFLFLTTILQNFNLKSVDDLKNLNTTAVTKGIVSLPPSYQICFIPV
Description: as §1

CYP2D6 = target: T5, CYP2D6 (Homo sapiens, UniProt P10635); test: CYP inhibition in human liver microsomes, CYP2D6; details: probe dextromethorphan, substrate dextromethorphan, read-out: CYP2D6 Inh %
T5 construct: incubated with human liver microsomes; tissue Eurofins ITEMG232; host or cells: human liver microsomes
T5 sequence (P10635 whole entry): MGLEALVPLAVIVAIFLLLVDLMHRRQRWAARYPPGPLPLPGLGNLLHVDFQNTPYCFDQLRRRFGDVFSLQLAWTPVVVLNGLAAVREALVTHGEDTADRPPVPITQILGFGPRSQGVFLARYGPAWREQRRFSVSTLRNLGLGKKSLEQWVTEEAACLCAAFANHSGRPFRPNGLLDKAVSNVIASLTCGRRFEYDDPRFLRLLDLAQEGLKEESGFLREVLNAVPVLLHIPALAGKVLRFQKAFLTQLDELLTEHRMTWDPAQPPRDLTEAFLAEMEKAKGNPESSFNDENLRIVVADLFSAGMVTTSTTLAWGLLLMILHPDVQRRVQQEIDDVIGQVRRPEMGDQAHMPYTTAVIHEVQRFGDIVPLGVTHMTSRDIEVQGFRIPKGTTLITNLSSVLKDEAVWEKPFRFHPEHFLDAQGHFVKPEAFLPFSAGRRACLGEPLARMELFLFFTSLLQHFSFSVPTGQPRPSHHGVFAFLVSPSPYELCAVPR
Description: as §1

CYP3A4&5 = test: CYP inhibition in human liver microsomes, CYP3A4&5 (testosterone); details: probe testosterone, substrate testosterone, read-out: CYP3A4&5 testosterone Inh %
Description: as §1

CYP2C9 = CYP2C9 (Homo sapiens, UniProt P11712); test: CYP inhibition in human liver microsomes, CYP2C9; set-up: incubated with human liver microsomes; tissue Eurofins ITEMG232; host or cells: human liver microsomes; details: probe diclofenac, substrate diclofenac, read-out: CYP2C9 Inh %
Chain of CYP2C9 (P11712 whole entry): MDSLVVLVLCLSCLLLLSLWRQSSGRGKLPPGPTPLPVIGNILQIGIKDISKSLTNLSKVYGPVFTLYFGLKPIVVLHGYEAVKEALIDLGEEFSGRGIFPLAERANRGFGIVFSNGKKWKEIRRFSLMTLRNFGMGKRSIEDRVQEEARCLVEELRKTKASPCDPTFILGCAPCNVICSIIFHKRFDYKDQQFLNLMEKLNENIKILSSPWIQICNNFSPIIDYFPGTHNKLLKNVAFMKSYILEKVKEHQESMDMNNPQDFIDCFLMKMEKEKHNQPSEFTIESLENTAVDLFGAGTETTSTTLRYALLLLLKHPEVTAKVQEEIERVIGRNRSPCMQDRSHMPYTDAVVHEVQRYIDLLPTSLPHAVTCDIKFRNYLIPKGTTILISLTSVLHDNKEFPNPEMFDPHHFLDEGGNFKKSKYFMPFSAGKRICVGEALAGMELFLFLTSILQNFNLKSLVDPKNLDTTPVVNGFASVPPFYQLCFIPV
Description: as §1

CYP3A4 = CYP3A4 (Homo sapiens, UniProt P08684); test: CYP inhibition in human liver microsomes, CYP3A4 (midazolam); set-up: incubated with human liver microsomes; tissue Eurofins ITEMG232; host or cells: human liver microsomes; details: probe midazolam, substrate midazolam, read-out: CYP3A4 midazolam Inh %
Chain of CYP3A4 (P08684 whole entry): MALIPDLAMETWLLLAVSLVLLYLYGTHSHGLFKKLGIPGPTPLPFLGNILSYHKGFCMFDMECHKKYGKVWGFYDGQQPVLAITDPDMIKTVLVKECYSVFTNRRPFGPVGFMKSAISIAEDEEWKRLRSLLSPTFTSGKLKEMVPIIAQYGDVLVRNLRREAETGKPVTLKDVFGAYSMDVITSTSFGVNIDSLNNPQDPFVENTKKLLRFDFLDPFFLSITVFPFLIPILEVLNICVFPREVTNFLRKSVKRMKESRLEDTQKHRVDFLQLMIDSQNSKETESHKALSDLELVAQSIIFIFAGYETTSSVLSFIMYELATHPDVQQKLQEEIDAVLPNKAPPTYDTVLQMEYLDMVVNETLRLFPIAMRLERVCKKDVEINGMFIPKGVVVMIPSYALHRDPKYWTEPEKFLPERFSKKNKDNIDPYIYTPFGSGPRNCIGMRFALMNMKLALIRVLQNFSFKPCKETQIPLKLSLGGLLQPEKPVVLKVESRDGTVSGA
Description: as §1

[2] = with 1 mM NADPH, read-out: T1/2, + NaDPH
[3] = without NADPH, read-out: T1/2, no NaDPH

SMILES	half-life at 1 μM [1, 2]	half-life at 1 μM [1, 3]	inhibition at 10 µM (CYP1A)	inhibition at 10 µM (CYP2B6)	inhibition at 10 µM (CYP2C19)	inhibition at 10 µM (CYP2C8)	inhibition at 10 µM (CYP2D6)	inhibition at 10 µM (CYP3A4&5)	inhibition at 10 µM (CYP2C9)	inhibition at 10 µM (CYP3A4)
Cc1nccn1Cc1ccc(-c2cc(CC(C)C)sc2S(=O)(=O)NC(=O)NCCCC(F)(F)F)cc1F [Example 18, 3-(3-{3-Fluoro-4-[(2-methyl-1H-imidazol-1-yl)methyl]phenyl}-5-isobutyl-2-thienylsulfonyl)-1-(4,4,4-trifluorobutyl)urea]	0.5 h	> 1 h	15%	59%	78%	72%	20%	24%	62%	50%
CCc1nccn1Cc1ccc(-c2cc(CC(C)C)sc2S(=O)(=O)NC(=O)NCCC(F)(F)F)cc1F.O=C(O)C(F)(F)F [Example 30, 1-[(3-{4-[(2-ethyl-1H-imidazol-1-yl)methyl]-3-fluorophenyl}-5-(2-methylpropyl)thiophen-2-yl)sulfonyl]-3-(3,3,3-trifluoropropyl)urea trifluoroacetic acid]	0.667 h	> 1 h	-1%	30%	53%	64%	12%	13%	61%	-3%
Cc1cn(Cc2ccc(-c3cc(CC(C)C)sc3S(=O)(=O)NC(=O)NCCC(F)(F)F)cc2)c(C)n1 [Example 8, 3-(3-{p-[(2,4-Dimethyl-1H-imidazol-1-yl)methyl]phenyl}-5-isobutyl-2-thienylsulfonyl)-1-(3,3,3-trifluoropropyl)urea]	0.767 h	> 1 h	21.2%	18.8%	95.8%	60.2%	0%	29.8%	24%	17.5%
Cc1nccn1Cc1ccc(-c2cc(CC(C)C)sc2S(=O)(=O)NC(=O)NCCC(F)(F)F)cc1 [Example 3, 3-(5-isobutyl-3-{p-[(2-Methyl-1H-imidazol-1-yl)methyl]phenyl}-2-thienylsulfonyl)-1-(3,3,3-trifluoropropyl)-urea]	> 1 h	> 1 h	-4.2%	9.9%	37.3%	25.3%	5.5%	8.2%	21.6%	4.1%
CCc1nccn1Cc1ccc(-c2cc(CC(C)C)sc2S(=O)(=O)NC(=O)NCc2ccccn2)cc1 [Example 9, 3-(3-{p-[(2-Ethyl-1H-imidazol-1-yl)methyl]phenyl}-5-isobutyl-2-thienylsulfonyl)-1-[(2-pyridyl)methyl]urea]	> 1 h	> 1 h	-9%	0%	18%	52%	24%	17%	28%	-19%
Cc1nccn1Cc1ccc(-c2cc(CC(C)C)sc2S(=O)(=O)NC(=O)NCc2ccccc2)cc1F [Example 12, 1-Benzyl-3-(3-{3-fluoro-4-[(2-methyl-1H-imidazol-1-yl)methyl]phenyl}-5-isobutyl-2-thienylsulfonyl)urea]	–	–	4%	33%	62%	51%	58%	24%	64%	32%
